Measurements reported in patent US20260132115A1, “SUBSTITUTED 3-FLUOROBENZENEPROPANOATE COMPOUND AND PREPARATION METHOD THEREFOR, PHARMACEUTICAL COMPOSITION THEREOF, AND USE THEREOF” (TIANJIN GUDUI BIO-PHARM CO., LTD., priority 2022, published 2026).
Read-outs that look alike come from different tables or passages of the source. Marks after values point to notes of the source that are not given here.

Columns and labels:
[1] = tested on: λ-Carrageenan-Induced Rat Toe Swelling; assay: Anti-inflammatory effect on λ-carrageenan-induced rat toe swelling; assay type: in vivo, SD rats; conditions: 10 mg/kg intraperitoneal, 1 h before 1% λ-carrageenan; for inhibition in vivo at 10 mg/kg: Rattus norvegicus, ip
Procedure: Experimental method: Male SD rats weighing 150-160 g were randomly grouped, with 10 rats in each group. The rats were intraperitoneally injected with saline, the compounds of the present disclosure, and the control drug flurbiprofen or flurbiprofen axetil respectively, all of which were administered at a dose of 10 mg/kg and a dosing volume of 10 μL/g. At 1 h after administration, 100 μL of 1% λ-carrageenan was injected into the right hind toe of each rat to induce inflammation. Afterwards, the paw volume was measured every 1 h using a paw volume meter to calculate the swelling inhibition rate.

[2] = tested on: H460; assay: Antitumor potency, MTT method, H460; assay type: cell-based; conditions: Homo sapiens, NCI-H460, 72 h incubation
Procedure: (§1) Experimental method: The antitumor potency was tested by the MTT method. Tumor cells at the logarithmic phase were collected. The concentration of the cell suspension was adjusted. 100 μL of the cell suspension was added to each well. Cell plating was carried out and the cell density was adjusted to 1000 to 10000/well (the marginal wells were filled with sterile PBS). The cells were incubated at 5% CO2 and 37° C. until the cells adhered to the wall (96-well flat-bottomed plate). Drugs of different concentration gradients were added, 100 μL per well. Four replicates were set up. Under the conditions of 5% CO2 and 37° C., the cells were incubated for 72 h and observed under an inverted microscope. The prepared MTT solution (5 mg/mL) was added to the 96-well plate, 20 μL per well, mixed well, and incubated for 4 h under the conditions of 37° C. and 5% CO2. Afterwards, the liquid in the plate was discarded. 150 μL of DMSO was added to each well and oscillated for 3 min on a microplate reader. The OD value (optical density) was detected at 490 nm.
(§2) The inhibition rate of the drug against the tumor cell growth was calculated according to the following formula: […]

[3] = tested on: U87; assay: Antitumor potency, MTT method, U87; assay type: cell-based; conditions: Homo sapiens, U-87 MG, 72 h incubation
Procedure: as §1, §2

[4] = tested on: MM.1S; assay: Antitumor potency, MTT method, MM.1S; assay type: cell-based; conditions: Homo sapiens, MM1.S, 72 h incubation
Procedure: as §1, §2

[5] = tested on: Eca-109; assay: Antitumor potency, MTT method, Eca-109; assay type: cell-based; conditions: Homo sapiens, 72 h incubation
Procedure: as §1, §2

[6] = tested on: NUGC-4; assay: Antitumor potency, MTT method, NUGC-4; assay type: cell-based; conditions: Homo sapiens, 72 h incubation
Procedure: as §1, §2

[7] = tested on: U251; assay: Antitumor potency, MTT method, U251; assay type: cell-based; conditions: Homo sapiens, U-251, 72 h incubation
Procedure: as §1, §2

[8] = tested on: rats with CIA; assay: Analgesic and anti-inflammatory effects on collagen-induced rheumatoid arthritis (CIA) in rats; assay type: in vivo, Lewis rats; conditions: for paw volume effect as compared to the flurbiprofen group: left hind limb, 14-day intervention, 10 mg/kg (FIG. 3); for MWT effect as compared to the flurbiprofen group: left lower limb, 13-day intervention, 10 mg/kg (FIG. 4)
Procedure: Experimental method: Female Lewis rats, aged 6-8 weeks, were randomly grouped, with 8 rats in each group. Under the ambient temperature of 20.5° C. to 24.5° C. and the humidity of 40% to 70%, the light period was 12-h bright and 12-h dark. Type II collagen was mixed with Freund's incomplete adjuvant (IFA) at a ratio of 1:1 and fully emulsified on ice before use. 100 μL of the mixed solution was injected intradermally at the part 2 to 3 cm from the base of the rat tail, and 50 μL of the mixed solution was injected into the bases of both hind limbs separately. The rats in the blank control group were injected with an equal volume of saline. IFA was used for re-immunization 7 days later. […] Rats with a total score of more than 2 on both hind limbs were selected and randomly divided into a model group, a flurbiprofen group, a compound 33 group, a compound 2 group, a compound 13 group, a compound 20 group, and a compound 35 group according to the body weight, score and paw volume, and furthermore a blank control group was set up, with 8 rats in each group. The dosing […] was […], and the dosing time was 14 days. A corresponding volume of solvent was administered in the model group and the blank control group.
Test indicators: body weight, arthritis score, hind limb paw volume, and mechanical foot threshold (MWT).
Standard for arthritis score: 0=normal; 1=erythema and slight swelling observed at the ankle joint; 2=erythema and slight swelling observed from the ankle joint to the metatarsal joint or the metacarpal joint; 3=erythema and moderate swelling observed from the ankle joint to the metatarsophalangeal joint or the metacarpal joint; 4=erythema and severe swelling observed from the ankle joint to the metatarsal joint; the total score of all (four) paws was calculated, and the sum of the arthritis indices was up to 16 per rat.

[9] = tested on: Dry Yeast-Induced Rat Fever Models; assay: Antipyretic effect on dry yeast-induced fever in rats; assay type: in vivo, SD rats; conditions: rectal temperature, 10 mg/kg intraperitoneal, 20 min before 20% dry yeast s.c.
Procedure: Experimental method: Male SD rats, aged 4 weeks, were randomly grouped, with 10 rats in each group. […] The rats were intraperitoneally injected with saline, the compounds of the present disclosure or the control drug flurbiprofen respectively, all of which were administered at a dose of 10 mg/kg and a dosing volume of 10 μL/g. At 20 min after administration, 20% active dry yeast suspension was injected subcutaneously. After modeling, the rectal temperatures were measured at 4 h and 8 h.

[10] = In vivo pharmacokinetic assay in rats (gavage, plasma); conditions: female, Sprague Dawley, po, prototype drug in rat plasma, dose equimolar to 50 mg/kg flurbiprofen
Procedure: Experimental method: Adult female Sprague Dawley rats, aged 8-10 weeks and weighing 200±20 g, were randomly grouped, with 3 rats in each group. Rats in each of the groups were administered by gavage at a dose of 50 mg/kg of flurbiprofen and an equimolar dose of other example compounds to 50 mg/kg of flurbiprofen, respectively. After gavage administration, blood was collected at 0.0833 […], and 24 h into sodium heparin anticoagulant tubes, respectively. The blood was collected by the following method: 250 μL of blood were collected from the orbital venous plexuses of the rats. After blood collection, the blood samples were centrifuged at 12000 rpm in a centrifuge for 5 min. All plasma was aspirated into a 1.5-mL centrifuge tube, and the plasma was stored in a refrigerator at -80° C. The pharmacokinetic parameters were determined by the external standard curve method. Sample processing: after the cryopreserved samples were removed and restored to room temperature, the samples were vortexed evenly and then diluted two folds with methanol; the sample solution was diluted 5 folds by adding a mixed extractant of 0.5% formic acid-containing acetonitrile:methanol=7:3, and subjected to vortex oscillation for 1 min. Subsequently, the resultant was centrifuged at 4° C. and 12000 rpm for 10 min, and then 5 μL of the supernatant was measured for assay. The pharmacokinetic parameters in the Examples were calculated using the Winnonlin software.

[11] = 6 h, read-out: Toe Swelling Inhibition Rate at 6 h
[12] = 24 h, read-out: Toe Swelling Inhibition Rate at 24 h

| Molecule | inhibition in vivo at 10 mg/kg [1, 11] [%] | inhibition in vivo at 10 mg/kg [1, 12] [%] | Temp. at 4 h After Dosing [9] [°C] | Temp. at 8 h After Dosing [9] [°C] | further results |
| --- | --- | --- | --- | --- | --- |
| CC(C(=O)OCOC(=O)N[C@@H](Cc1ccc(O)cc1)C(=O)O)c1ccc(-c2ccccc2)c(F)c1 (stereo partly shown) [Compound 7] | 47.9 | 21.5 |  |  |  |
| CC(C(=O)OCOC(=O)N1C[C@@H](C)O[C@@H](C)C1)c1ccc(-c2ccccc2)c(F)c1 (stereo partly shown) [Compound 3] | 45.3 | 28.1 |  |  |  |
| CCCN(CCC)C(=O)OCOC(=O)C(C)c1ccc(-c2ccccc2)c(F)c1 (stereo not shown) [Compound 13] | 46 | 37 | 37.10 ± 0.172 | 37.32 ± 0.27 | IC50 [2]: 47.9 µM; IC50 [3]: 80.5 µM; IC50 [4]: 5.39 µM; IC50 [5]: 30.7 µM; IC50 [6]: 40.1 µM; IC50 [7]: 73.9 µM; paw volume effect as compared to the flurbiprofen group [8]: better effects; MWT effect as compared to the flurbiprofen group [8]: slightly better or better effects |
| CC(C(=O)OCOC(=O)c1ccc(N(C)C)cc1O)c1ccc(-c2ccccc2)c(F)c1 (stereo not shown) [Compound 41] | 43 | 32.2 | 37.19 ± 0.35 | 37.30 ± 0.31 |  |
| CC(C(=O)OCOC(=O)CCCCCN1C(=O)C=CC1=O)c1ccc(-c2ccccc2)c(F)c1 (stereo not shown) [Compound 53] | 69 | 75.2 | 37.04 ± 0.20 | 37.02 ± 0.30 |  |
| CC(C(=O)OCOC(=O)N1CCC(O)CC1)c1ccc(-c2ccccc2)c(F)c1 (stereo not shown) [Compound 20] | 52.7 | 45 | 37.09 ± 0.25 | 37.27 ± 0.26 | IC50 [2]: 35.9 µM; IC50 [3]: 54.6 µM; IC50 [4]: 42.8 µM; IC50 [5]: 33.2 µM; IC50 [6]: 50.4 µM; IC50 [7]: 5.84 µM; paw volume effect as compared to the flurbiprofen group [8]: better effects; MWT effect as compared to the flurbiprofen group [8]: slightly better or better effects |
| CC(C(=O)OCOC(=O)CCN1C(=O)CCC1=O)c1ccc(-c2ccccc2)c(F)c1 (stereo not shown) [Compound 55] | 36.7 | 41.4 |  |  |  |
| COc1cc(COC(=O)C(C)c2ccc(-c3ccccc3)c(F)c2)cc(OC)c1 (stereo not shown) [Compound 47] | 49.3 | 33.9 | 37.17 ± 0.27 | 37.26 ± 0.22 |  |
| CCCCCCN(C)C(=O)OCOC(=O)C(C)c1ccc(-c2ccccc2)c(F)c1 (stereo not shown) [Compound 67] | 48.6 | 57.3 | 37.17 ± 0.19 | 37.16 ± 0.20 |  |
| CC(C)CN(CC(C)C)C(=O)OCOC(=O)C(C)c1ccc(-c2ccccc2)c(F)c1 (stereo not shown) [Compound 69] | 65.9 | 70.6 | 37.09 ± 0.18 | 37.13 ± 0.27 |  |
| Flurbiprofen axetil [reference compound] |  |  |  |  | Toe Swelling Inhibition Rate at 6 h ([1]; 6 h): 35.53%**; Toe Swelling Inhibition Rate at 24 h ([1]; 24 h): 22.85%** |
| CC(OC(=O)C(C)c1ccc(-c2ccccc2)c(F)c1)OC(=O)N1CCOCC1 (stereo not shown) [Compound 9] |  |  | 37.17 ± 0.23 | 37.10 ± 0.37 |  |
| CC(C(=O)O)c1ccc(-c2ccccc2)c(F)c1 (stereo not shown) [Flurbiprofen, reference compound] | 35.5 | 29.9 | 37.49 ± 0.43 | 37.67 ± 0.39 | IC50 [2]: > 100 µM; IC50 [3]: > 100 µM; IC50 [4]: > 100 µM; IC50 [5]: 85.5 µM; IC50 [6]: > 100 µM; IC50 [7]: 34.1 µM |
| CC(=O)N1CCN(C(=O)OCOC(=O)C(C)c2ccc(-c3ccccc3)c(F)c2)CC1 (stereo not shown) [Compound 15] |  |  | 37.16 ± 0.16 | 37.27 ± 0.24 |  |
| CC(=O)Oc1ccccc1C(=O)OCOC(=O)C(C)c1ccc(-c2ccccc2)c(F)c1 (stereo not shown) [Compound 36] | 45.3 | 28.1 | 37.38 ± 0.31 | 37.24 ± 0.16 |  |
| CC(C(=O)OCOC(=O)N(CCO)CCO)c1ccc(-c2ccccc2)c(F)c1 (stereo not shown) [Compound 25] |  |  |  |  | AUC [10]: 63 ± 11.8 µg·h/mL; Cmax [10]: 3.87 ± 0.178 µg/mL; half-life ([10]; read-out: Prototype Drug t1/2 (converted)): 8.1 ± 4.42 h |
| CC(C(=O)OCOC(=O)CCCN1C(=O)C=CC1=O)c1ccc(-c2ccccc2)c(F)c1 (stereo not shown) [Compound 57] | 43.8 | 43.4 |  |  |  |
| CC(C(=O)OCc1ccccc1O)c1ccc(-c2ccccc2)c(F)c1 (stereo not shown) [Compound 48] | 44.1 | 33.9 | 37.11 ± 0.23 | 37.21 ± 0.25 |  |
| CCCCN(CCCC)C(=O)OCOC(=O)C(C)c1ccc(-c2ccccc2)c(F)c1 (stereo not shown) [Compound 65] | 43.1 | 43.8 | 37.10 ± 0.20 | 37.24 ± 0.23 |  |
| C[C@H](C(=O)OCOC(=O)N1CCC(O)CC1)c1ccc(-c2ccccc2)c(F)c1 [Compound 31] | 45.4 | 31.9 | 37.12 ± 0.30 | 37.22 ± 0.30 |  |
| CCCN(CCC)C(=O)OCOC(=O)[C@@H](C)c1ccc(-c2ccccc2)c(F)c1 [Compound 29] | 45.8 | 29.6 | 37.12 ± 0.13 | 37.35 ± 0.23 |  |
